Measured values as given in US20240059700A1, “NOVEL DIACYLGLYCERIDE O-ACYLTRANSFERASE 2 INHIBITORS” (Merck Sharp & Dohme LLC, priority 2020, published 2024).
pIC50: −log10 of the molar value.

Molecular target: human DGAT2 (hDGAT2) (Homo sapiens (Human), UniProt Q96PD7)
Assay: DGAT2 Enzymatic Activity Assay
Format: biochemical
Settings: membrane prep of Sf-9 insect cells expressing hDGAT2; 13C18-triolein product by LC/MS/MS
Procedure: Sf-9 insect cells were maintained in Grace's insect cell culture medium with 10% heated-inactivated fetal bovine serum, 1% Pluronic F-68 and 0.14 μg/ml Kanamycine sulfate at 27° C. in a shaker incubator. After infection with untagged baculovirus expressing human DGAT2 (hDGAT2) at multiplicity of infection (MOI) 3 for 48 hours, cells were harvested. Cell pellets were suspended in buffer containing 10 mM Tris-HCl pH 7.5, 1 mM EDTA, 250 mM sucrose and Complete Protease Inhibitor Cocktail (Sigma Aldrich), and sonicated on ice. Cell debris were removed by centrifugation at 2000×g for 15 minutes. Membrane fractions were isolated by ultracentrifugation (100,000×g), resuspended in the same buffer, and frozen (−80° C.) for later use. The protein concentration was determined with the Pierce™ BCA Protein Assay Kit (Thermo Fisher Scientific). Expression of protein levels was analyzed by immunoblotting with rabbit anti-DGAT2 antibody (Abcam, ab102831) and donkey anti-rabbit IgG H&L Alexa Fluor® 647 (Abcam, ab150075) followed by detection using Typhoon FLA9000 (GE Healthcare).
LC/MS/MS analyses were performed using Thermal Fisher's LX4-TSQ Vantage system. This system consists of an Agilent binary high-performance liquid chromatography (HPLC) pumps and a TSQ Vantage triple quadrupole MS/MS instrument. For each sample, 2 μL samples from the top organic layer of in-plate liquid-liquid extraction were injected onto a Thermo Betabasic C4 column (2.1 mm×20 mm, 5 μm particle size). The samples were then eluted using the following conditions; mobile phase: Isopropanol: acetonitrile/10 mM ammonium formate=50/35/15 (v/v/v), flow rate: 0.8 mL/min, temperature: 25° C. Data was acquired in positive mode using a heated electrospray ionization (HESI) interface. The operational parameters for the TSQ Vantage MS/MS instrument were a spray voltage of 3000 V, capillary temperature of 280° C., vaporizer temperature 400° C., sheath gas 45 arbitrary unit, Aux gas 10 arbitrary units, S-lens 165 and collision gas 1.0 mTorr. […] (SRM) chromatograms of ^13C18-triolein (Q1: 920.8>Q3:621.3) and internal standard ^13C21-triolein (Q1: 923.8>Q3:617.3) were collected for 33 sec. The peak area was integrated by Xcalibur Quan software. The ratio between the ^13C18 triolein generated in the reaction and spiked in internal standard ^13C21-triolein was used to generate percentage inhibition and IC50 values. Compound percentage inhibition was calculated by the following formula: Inhibition %=1−[(compound response−low control)/(high control−low control)]×100%. Potent compounds were titrated and IC50 were calculated by 4 parameter sigmoidal curve fitting formula.
DGAT2 activity was determined by measuring the amount of enzymatic product ^13C18-triolein (^13C-1,2,3-Tri(cis-9-octadecenoyl)glycerol) using the membrane prep mentioned above. The assay was carried out in ABgene 384-well assay plates in a final volume of 25 μL at rt. The assay mixture contained the following: assay buffer (100 mM Tris·Cl, pH 7.0, 20 mM MgCl2, 5% ethanol), 25 μM of diolein, 5 μM of ^13C oleoyl-CoA and 8 ng/μL of DGAT2 membrane.

Chain of human DGAT2 (hDGAT2) (Q96PD7 whole entry): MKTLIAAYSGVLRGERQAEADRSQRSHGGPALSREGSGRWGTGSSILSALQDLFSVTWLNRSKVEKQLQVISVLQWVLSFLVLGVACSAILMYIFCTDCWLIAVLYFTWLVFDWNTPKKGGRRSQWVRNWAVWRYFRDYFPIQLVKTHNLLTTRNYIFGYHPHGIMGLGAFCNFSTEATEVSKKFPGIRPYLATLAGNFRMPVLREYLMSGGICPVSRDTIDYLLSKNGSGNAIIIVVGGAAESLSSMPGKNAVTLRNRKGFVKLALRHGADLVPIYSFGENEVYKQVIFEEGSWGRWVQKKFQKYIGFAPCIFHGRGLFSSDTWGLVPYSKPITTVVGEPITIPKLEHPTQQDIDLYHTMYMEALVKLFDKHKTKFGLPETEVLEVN

Row | pIC50 | SMILES
1 | 8.28 | CC(C)n1nc(-c2cccc(OC(F)F)c2)c2ccc(C(=O)NC3(C)CS(=O)(=O)C3)c(F)c21 [Example 34, 3-(3-(difluoromethoxy)phenyl)-7-fluoro-1-isopropyl-N-(3-methyl-1,1-dioxidothietan-3-yl)-1H-indazole-6-carboxamide]
2 | 6.84 | CC(C)n1nc(-c2cc(OC(F)F)ncc2F)c2nnc(C(=O)NC3(C)CCS(=O)(=O)CC3)cc21 [Example 85, 3-(2-(difluoromethoxy)-5-fluoropyridin-4-yl)-1-isopropyl-N-(4-methyl-1,1-dioxidotetrahydro-2H-thiopyran-4-yl)-1H-pyrazolo[4,3-c]pyridazine-6-carboxamide]
3 | 9.05 | CC(C)n1nc(-c2cccc(OC3CC3)c2)c2ncc(C(=O)NC3(C)CS(=O)(=O)C3)cc21 [Example 97, 3-[3-(cyclopropoxy)phenyl]-1-isopropyl-N-(3-methyl-1,1-dioxo-thietan-3-yl)pyrazolo[4,3-b]pyridine-6-carboxamide]
4 | 7.59 | CC(C)n1nc(-c2cncc(OC(F)F)c2)c2ncc(C(=O)NC3(C)CS(=O)(=O)C3)cc21 [Example 95, 3-[5-(difluoromethoxy)-3-pyridyl]-1-isopropyl-N-(3-methyl-1,1-dioxo-thietan-3-yl)pyrazolo[4,3-b]pyridine-6-carboxamide]
5 | 9.00 | CC(C)n1nc(-c2cc(OC(F)F)ccc2F)c2ncc(C(=O)NC3(C)CS(=O)(=O)C3)cc21 [Example 113, 3-(5-(difluoromethoxy)-2-fluorophenyl)-1-isopropyl-N-(3-methyl-1,1-dioxidothietan-3-yl)-1H-pyrazolo[4,3-b]pyridine-6-carboxamide]
6 | 5.19 | N[C@@H]1CCC[C@H]1NC(=O)c1cnc2c(-c3cccc(OC(F)F)c3)cn(-c3ncc(F)cn3)c2c1 [Example 21, N-((1R,2R)-2-aminocyclopentyl)-3-(3-(difluoromethoxy)phenyl)-1-(5-fluoropyrimidin-2-yl)-1H-pyrrolo[3,2-b]pyridine-6-carboxamide]
7 | 7.01 | CC(C)n1nc(-c2cccc(OC(F)(F)F)c2)c2ncc(C(=O)NC3(C)CS(=O)(=O)C3)cc21 [Example 119, 1-isopropyl-N-(3-methyl-1,1-dioxidothietan-3-yl)-3-(3-(trifluoromethoxy)phenyl)-1H-pyrazolo[4,3-b]pyridine-6-carboxamide]
8 | 8.14 | CC(C)n1nc(-c2cccc(OC(F)F)c2)c2ncc(C(=O)N[C@@]3(C)CCS(=O)(=O)C3)cc21 [Example 31, (S)-3-(3-(difluoromethoxy)phenyl)-1-isopropyl-N-(3-methyl-1,1-dioxidotetrahydrothiophen-3-yl)-1H-pyrazolo[4,3-b]pyridine-6-carboxamide]
9 | 7.14 | CC(C)n1nc(-c2cccc(OC(F)F)c2)c2ncc(C(=O)N[C@@H]3CCC[C@H]3N3CCOCC3)cc21 [Example 41, 3-[3-(difluoromethoxy)phenyl]-1-isopropyl-N-[(1R,2R)-2-morpholinocyclopentyl]pyrazolo[4,3-b]pyridine-6-carboxamide]
10 | 6.82 | CC(C)n1nc(-c2cccc(OC(F)F)c2)c2ncc(C(=O)NC3(C(C)O)CCOC3)cc21 (single isomer, unassigned) [Example 50d, 3-(3-(difluoromethoxy)phenyl)-N-(3-(1-hydroxyethyl)tetrahydrofuran-3-yl)-1-isopropyl-1H-pyrazolo[4,3-b]pyridine-6-carboxamide]
11 | 7.02 | CC1(NC(=O)c2cnc3c(-c4cccc(OC(F)F)c4)nn(C4CCOCC4C(F)(F)F)c3c2)CS(=O)(=O)C1 (centres unmarked) [Example 71, 3-(3-(difluoromethoxy)phenyl)-N-(3-methyl-1,1-dioxidothietan-3-yl)-1-(3-(trifluoromethyl)tetrahydro-2H-pyran-4-yl)-1H-pyrazolo[4,3-b]pyridine-6-carboxamide]
12 | 7.64 | C[C@]1(NC(=O)c2cc3c(cn2)c(-c2cccc(OC(F)F)c2)cn3-c2ccc(F)cc2)CCS(=O)(=O)C1 [Example 15, (S)-3-(3-(difluoromethoxy)phenyl)-1-(4-fluorophenyl)-N-(3-methyl-1,1-dioxidotetrahydrothiophen-3-yl)-1H-pyrrolo[3,2-c]pyridine-6-carboxamide]
13 | 6.32 | CC(C(N)=O)n1nc(-c2cc(OC(F)F)ccc2F)c2ncc(C(=O)NC3(C)CS(=O)(=O)C3)cc21 (centres unmarked) [Example 90, 1-(1-amino-1-oxopropan-2-yl)-3-(5-(difluoromethoxy)-2-fluorophenyl)-N-(3-methyl-1,1-dioxidothietan-3-yl)-1H-pyrazolo[4,3-b]pyridine-6-carboxamide]
14 | 6.68 | CC(C)n1nc(-c2cccc(C(C)(F)F)c2)c2ncc(C(=O)NC3(C)CS(=O)(=O)C3)cc21 [Example 93, 3-[3-(1,1-difluoroethyl)phenyl]-1-isopropyl-N-(3-methyl-1,1-dioxo-thietan-3-yl)pyrazolo[4,3-b]pyridine-6-carboxamide]
15 | 6.20 | CC(C)n1nc(-c2cccc(OC(F)F)c2)c2ncc(C(=O)NC3(C(C)(C)O)CCOCC3)cc21 [Example 72, 3-(3-(difluoromethoxy)phenyl)-N-(4-(2-hydroxypropan-2-yl)tetrahydro-2H-pyran-4-yl)-1-isopropyl-1H-pyrazolo[4,3-b]pyridine-6-carboxamide]
16 | 7.19 | CC(C)n1nc(-c2cccc(OC(F)F)c2)c2ncc(C(=O)N[C@H]3CCC[C@H]3O)cc21 [Example 44, 3-(3-(difluoromethoxy)phenyl)-N-((1S,2R)-2-hydroxycydopentyl)-1-isopropyl-1H-pyrazolo[4,3-b]pyridine-6-carboxamide]
17 | 5.00 | C[C@]1(NC(=O)c2cc3c(cn2)c(-c2cncc(OC(F)F)c2)nn3C2CCOCC2)CCS(=O)(=O)C1 [Example 79, (S)-3-(5-(difluoromethoxy)pyridin-3-yl)-N-(3-methyl-1,1-dioxidotetrahydrothiophen-3-yl)-1-(tetrahydro-2H-pyran-4-yl)-1H-pyrazolo[4,3-c]pyridine-6-carboxamide]
18 | 7.89 | CC(C)[C@H](NC(=O)c1cnc2c(-c3cncc(OC(F)F)c3)nn(C(C)C)c2c1)[C@H](C)O [Example 54, 3-(5-(difluoromethoxy)pyridin-3-yl)-N-((2S,3S)-2-hydroxy-4-methylpentan-3-yl)-1-isopropyl-1H-pyrazolo[4,3-b]pyridine-6-carboxamide]
19 | 6.16 | CC(C)n1nc(-c2cc(OC(F)F)ccn2)c2ncc(C(=O)NC3(C)CS(=O)(=O)C3)cc21 [Example 98, 3-[4-(difluoromethoxy)-2-pyridyl]-1-isopropyl-N-(3-methyl-1,1-dioxo-thietan-3-yl)pyrazolo[4,3-b]pyridine-6-carboxamide]
20 | 7.24 | C[C@]1(NC(=O)c2cnc3c(-c4cccc(OC(F)F)c4)nn(-c4ncc(F)cn4)c3c2)CCS(=O)(=O)C1 [Example 3, (S)-3-(3-(difluoromethoxy)phenyl)-1-(5-fluoropyrimidin-2-yl)-N-(3-methyl-1,1-dioxidotetrahydrothiophen-3-yl)-1H-pyrazolo[4,3-b]pyridine-6-carboxamide]
21 | < 6.00 | O=C(NCC1CC(F)(F)C1)c1cnc2c(-c3cccc(OC(F)F)c3)cn(-c3ncc(F)cn3)c2c1 [Example 19, N-((3,3-difluorocyclobutyl)methyl)-3-(3-(difluoromethoxy)phenyl)-1-(5-fluoropyrimidin-2-yl)-1H-pyrrolo[3,2-b]pyridine-6-carboxamide]
22 | 5.26 | CC(C)n1nc(-c2cccc(OC(F)F)n2)c2ncc(C(=O)NC3(C)CS(=O)(=O)C3)cc21 [Example 96, 3-[6-(difluoromethoxy)-2-pyridyl]-1-isopropyl-N-(3-methyl-1,1-dioxo-thietan-3-yl)pyrazolo[4,3-b]pyridine-6-carboxamide]
23 | 8.15 | CC(C)n1nc(-c2cccc(OCC(F)F)c2)c2ncc(C(=O)NC3(C)CS(=O)(=O)C3)cc21 [Example 94, 3-[3-(2,2-difluoroethoxy)phenyl]-1-isopropyl-N-(3-methyl-1,1-dioxo-thietan-3-yl)pyrazolo[4,3-b]pyridine-6-carboxamide]
